MIC and Activity data for three molecules are collected here from ChEMBL document CHEMBL1158309, “Callyspongins A and B: Novel Polyacetylene Sulfates from the Marine Sponge Callyspongia truncata That Inhibit Fertilization of Starfish Gametes” (J Nat Prod, 1996).

Data set [1] can be described thus: Antifertilization activity in Asterias amurensis sperm assessed as inhibition of sperm motility after 30 mins. It is filed as functional, cell-based.
Data set [2] in a line: Antifertilization activity in Asterias amurensis egg assessed as inhibition of egg activation after 30 mins. It is filed as functional.
The nature of data set [3]: Antifertilization activity in Asterias amurensis oocyte assessed as inhibition of 1-methyladenine-induced oocyte maturation at 100 uM. It counts as functional, cell-based.
Data set [4] can be described thus: Antifertilization activity in Asterias amurensis fertilized egg assessed as inhibition of blastula development at 100 uM. It is filed as functional.
Data set [5] in a line: Toxicity against Asterias amurensis embryos lysed in sea water at 100 uM. The conditions noted are these: buffer. Also noted: species or system Embryo.
The nature of data set [6]: Toxicity against Asterias amurensis sperm in sea water at 100 uM. It is filed as cell-based.
The nature of data set [7]: Toxicity against Asterias amurensis egg in sea water at 100 uM. The conditions noted are these: buffer.

Converted amounts (≈) assume the structure as drawn. The source made the active and inactive calls. The rule behind the calls is not given here. Some results are limits rather than exact numbers.

In the case of `C#C/C=C\CCCC/C=C\C#CC#CCCCC#CC#C[C@H](COS(=O)(=O)O)OS(=O)(=O)O`, the MIC came to 50 µM (≈ 24.6 µg/mL) in data set [1] and 6.3 µM (≈ 3.1 µg/mL) in data set [2]. Further, the outcome in data set [3] and in data set [4] was inactive.

With `C#C/C=C\CCCC/C=C\C#CC#CCCCC#CC#C[C@@H](O)COS(=O)(=O)O`, the MIC in data set [1] was 100 µM (≈ 41.3 µg/mL); in data set [2] it was 50 µM (≈ 20.6 µg/mL). Further, the outcome in data set [3] and in data set [4] was inactive.

Regarding `C#C/C=C\CCCC/C=C\C#CC#CCCCC#CC#C[C@@H](O)CO` [SIPHONODIOL], the values for the MIC in data set [1] and in data set [2] were 13 µM (≈ 4.32 µg/mL) and more than 200 µM, respectively. In data set [3], the result was inactive. For the same molecule, the Activity result in data set [5], in data set [6] and in data set [7] was “Toxic” in each case.
